Test results from patent US11191760B2, “Compositions and methods for treating Helicobacter pylori infection” (priority 2016, dated 2021).

How the values were obtained:
Type in all cases: cell-based
AGS cells [1] = assay: VacA-disrupted autophagy in AGS cells (LC3-II immunoblot, LC3 puncta); conditions: for VacA-disrupted autophagy (LC3-II levels): FIG. 13
Experimental: AGS cells incubated with VacA+ or VacA− CCMS for 3 to 4 hrs were then treated with 20 μM ML-SA1 or DMSO (vehicle) for an additional 3 hrs. Cell lysates were prepared and probed for the autophagy marker LC3-II and actin (loading control) (4A, left). Densitometry analysis (LC3-II/actin ratio) of 6 experiments is included on the right. […] Cells treated as indicated above were fixed and stained for LC3-11 (marker of autophagosomes) and cell nuclei (using DAPI). […] One representative image of 7 experiments is shown.
To validate the results obtained with ML-SA1 and confirm that VacA impairs TRPML1 activity, a new recently described TRPML1 agonist, MK6-83, was also evaluated in its ability to restore VacA-disrupted autophagy. To this end, AGS cells incubated with VacA+ or VacA− CCMS for 4 hours were treated with 20 μM ML-SA1, 10 μM MK6-83 or DMSO (vehicle) for additional 3 hour period. Cell lysates were prepared and assessed for LC3-II and actin as loading control. […] This example provides evidence that various TRPML1 agonists of different structures work in the same way by targeting TRPML1 to restore VacA-disrupted autophagy.

AGS cells [2] = assay: Lysosomal degradative function in VacA+ CCMS treated AGS cells (red DQ-BSA); conditions: 20 μM for 3 hrs after overnight VacA+ CCMS, then red DQ-BSA 4 hrs
Experimental: AGS cells were incubated overnight with VacA− or VacA+ CCMS and treated with 20 μM ML-SA1 or DMSO (vehicle) for an additional 3 hrs period prior to being loaded with red DQ-BSA for an additional 4 hrs. Cells were then fixed and stained with DAPI. Red DQ-BSA is a chromogenic substrate taken up by the cells by endocytosis. The dye generates a fluorescence signal once hydrolyzed in lysosomes. VacA− treated control cells efficiently degrade the substrate resulting in the detection of the fluorescence signal (lysosomal-like white puncta in 7A) whereas in VacA+ treated cells minimal to none fluorescence is detected (7B). […] The experiment was repeated 4 times with similar results.
(§1) ML-SA1 administration to VacA^+ treated AGS cells recovered the delivery of cathepsin D to intracellular vacuoles (FIG. 5) and increased cathepsin D cellular levels as detected by immunoblotting (FIG. 6). Importantly, ML-SA1-treated cells also regained the ability to degrade the chromogenic substrate, DQ-BSA (FIG. 7). Altogether, these findings indicate that activation of the TRPML1 channel reverts formation of the VacA-induced non-degradative vacuole.

AGS cells [3] = assay: VacA-induced vacuolation in AGS cells (Lamp1 staining); conditions: 20 μM for 3 hrs after 3 to 4 hrs VacA+ CCMS
Experimental: AGS cells were incubated with CCMS from wild-type (VacA+) or mutant (VacA−) 60190 H. pylori for 3 to 4 hrs to induce vacuole formation. Cells were then treated with 20 μM of the TRPML1 agonist ML-SA1 or DMSO (vehicle) for an additional 3 hrs period prior to fixation and staining for Lamp1 and cell nuclei. […] Lamp1 staining in these TRPML1 treated cells was indistinguishable from VacA− CCMS control AGS cells. The experiment was repeated 8 times with similar results. One representative experiment is shown.
ML-SA1-treated VacA^+ AGS cells were indistinguishable from VacA^− control cells, displaying Lamp1 staining that resembled normal lysosome size and distribution.

human gastric organoids = assay: VacA-induced large vacuoles and disrupted autophagy in human gastric organoids; conditions: 16 h VacA+ culture supernatant
Experimental: (11A) 3-dimensional human gastric organoids were treated 16 h with VacA− or VacA+ culture supernatant, then 5 h with vehicle (DMSO) or ML-SA1. One representative Western blot is shown and the corresponding quantification of the rescue in LC3-II by treatment with ML-SA1 from organoids derived from 5 different patients. (B) Representative confocal images taken from human gastric organoid monolayers treated for 16 h with VacA− or VacA+ culture supernatant, then 3 h with vehicle (DMSO) or ML-SA1. VacA-induced large vacuoles were visualized by Lamp1, autophagy by LC3 and nuclei by DAPI. Note large Lamp1 positive rings and LC3 puncta (arrows) in VacA+ DMSO that were rescued in VacA+ ML-SA1.
Organoids are 3-dimensional primary cell cultures that recapitulate the normal stomach physiology. These cultures are derived from stem cells located in the gastric gland that differentiate into complex structures containing the different cell types found in the stomach epithelium. To ensure findings from the cancerous gastric cell line (AGS) held true in a physiological model, organoids were derived from multiple different patients and treated with VacA.

[4] = system: wild-type (VacA+) H. pylori; assay: Intracellular bacteria survival in infected AGS cells (gentamicin, CFU)
AGS cells [5] = assay: Vacuolation and cathepsin D missorting in AGS cells infected with wild-type (VacA+) H. pylori; conditions: treated for 4 hrs
Experimental: A merged image is shown on the left, and the individual stainings corresponding to a higher magnification of the selected areas are included on the right. In the AGS cells infected with VacA− H. pylori mutant, the cathepsin D-filled lysosomes efficiently killed the intracellular bacteria (visualized by DAPI).
To this end, AGS cells infected with wild-type (VacA^+) or VacA^− mutant H. pylori were incubated with the cell-impermeant antibiotic gentamicin to kill extracellular bacteria. Intracellular bacteria were then retrieved and quantified. […] The big vacuoles, depleted of cathepsin D and filled with bacteria observed in the VacA^+ H. pylori infected cells (FIG. 9, inset), were reduced in size and filled with the hydrolytic enzyme after ML-SA1 treatment (FIG. 9, inset). Thus, the reduction in intracellular survival was a consequence of the destruction of the […] H. pylori protective niche (FIG. 8,9).

AGS cells [6] = assay: Cathepsin D cellular levels in VacA+ CCMS treated AGS cells (Western blotting); conditions: 20 μM for 4 hrs after overnight VacA+ CCMS
Experimental: AGS cells were incubated overnight with VacA− or VacA+ CCMS and treated with 20 μM ML-SA1 or DMSO (vehicle) for an additional 4 hrs period prior to lysate preparation. Cathepsin D and actin (loading control) levels were analyzed by Western blotting. […] One representative blot of 5 is shown (top panel). Densitometry analysis of cathepsin D levels (cathepsin D/actin ratio), normalized to the VacA− treated control is shown (bottom panel).
as §1

AGS cells [7] = assay: VacA-induced missorting of cathepsin D in AGS cells (Lamp1/cathepsin D staining); conditions: 20 μM for 4 hrs after overnight VacA+ CCMS
Experimental: VacA− DMSO treated (control) cells display lysosomes filled with cathepsin D (same puncta obtained by Lamp1 and cathepsin D staining in the top 2 panels) whereas the big vacuoles generated by VacA+ incubation lack cathepsin D (middle panels). […] A higher magnification of a merged Lamp1/cathepsin D image is included on the right. One representative image of 6 experiments is shown.
as §1

SMILES | VacA-disrupted autophagy (LC3-II levels) (AGS cells [1]; 10 μM for 3 hour after 4 hours VacA+ CCMS, AGS cells) | lysosomal degradative function (degradation of DQ-BSA) (AGS cells [2]) | VacA-induced vacuolation (Lamp1 staining) (AGS cells [3]) | VacA-induced large intracellular vacuoles (Lamp1) (human gastric organoids; then 3 h compound, human gastric organoid monolayers) | disrupted autophagy (LC3) (human gastric organoids; then 5 h (3-dimensional organoids, LC3-II blot) or 3 h (monolayers) compound) | VacA-disrupted autophagy (LC3-II levels) (AGS cells [1]; 20 μM for 3 hour after 4 hours VacA+ CCMS, AGS cells) | autophagy marker LC3-II (LC3-II/actin ratio) (AGS cells [1]; 20 μM for 3 hrs after 3 to 4 hrs VacA+ CCMS, AGS cell lysates, FIG. 4A) | accumulation of dysfunctional autophagosomes (LC3 puncta) (AGS cells [1]; 20 μM for 3 hrs after VacA+ CCMS, AGS cells, staining, FIG. 4B) | intracellular survival of wild-type (VacA+) H. pylori (CFU) ([4]; 8 hrs infection, 20 μM for the last 3 hrs) | intracellular survival of wild-type (VacA+) H. pylori (CFU) ([4]; 24 hrs infection, 20 μM for the last 4 hrs) | size of the vacuoles in VacA+ H. pylori infected cells (AGS cells [5]; Lamp1 staining) | cathepsin D in the vacuoles of VacA+ H. pylori infected cells (AGS cells [5]; cathepsin D staining) | cathepsin D cellular levels (cathepsin D/actin ratio) (AGS cells [6]) | cathepsin D sorting to lysosomes (AGS cells [7])
Cc1ccc(S(=O)(=O)Nc2ccccc2N2CCCCC2)s1 [MK6-83] | restored the VacA-disrupted autophagy | – | – | – | – | – | – | – | – | – | – | – | – | –
CC1CC(C)(C)N(C(=O)CN2C(=O)c3ccccc3C2=O)c2ccccc21 (centres unmarked) [ML-SA1] | – | restores the degradative capacity | reversed the vacuolation | large vacuoles were reverted | autophagy was restored | restored the VacA-disrupted autophagy | autophagy was restored | reversed the accumulation of dysfunctional autophagosomes | reverted the enhanced intracellular survival | reverted the enhanced intracellular survival | causes a reduction in the size of the vacuoles | now contain the lysosomal hydrolase cathepsin D | restored cathepsin D levels | restores cathepsin D sorting to lysosomes
